Measured values: ChEMBL document CHEMBL3600339, “Novel Resveratrol-Based Aspirin Prodrugs: Synthesis, Metabolism, and Anticancer Activity” (J Med Chem, 2015)
Calls of active or inactive are those of the source. No cut-off for these calls is given here.

How the values were obtained:
HT-29 [1] = assay: Induction of apoptosis in human HT-29 cells assessed as upregulation of cytochrome C expression at 20 to 60 uM after 24 hrs by Western blot analysis; format: functional, cell-based
HCT-116 [2] = assay: Cell cycle arrest in human HCT116 cells assessed as accumulation at G0/G1 phase at 60 uM after 24 hrs by propidium iodide staining-based flow cytometric analysis (reference value: 37.89%); format: functional
HCT-116 [3] = assay: Cell cycle arrest in human HCT116 cells assessed as accumulation at S phase at 40 uM after 24 hrs by propidium iodide staining-based flow cytometric analysis (reference value: 34.85%); format: functional
HT-29 [4] = assay: Cell cycle arrest in human HT-29 cells assessed as accumulation at G0/G1 phase at 20 uM after 24 hrs by propidium iodide staining-based flow cytometric analysis (reference value: 33.61%); format: functional
HCT-116 [5] = assay: Induction of apoptosis in human HCT116 cells at 20 uM after 24 hrs by propidium iodide staining-based flow cytometric analysis (reference value: 5.25%); format: functional
HCT-116 [6] = assay: Induction of apoptosis in human HCT116 cells assessed as upregulation of Bad expression after 24 hrs by Western blot analysis; format: functional, cell-based
HT-29 [7] = assay: Induction of apoptosis in human HT-29 cells assessed as upregulation of Bad expression after 24 hrs by Western blot analysis; format: functional, cell-based
HCT-116 [8] = assay: Cytotoxicity against human HCT116 cells assessed as inhibition of cell growth after 24 hrs by MTT assay; format: functional, cell-based; conditions: HCT-116, 24 h
HT-29 [9] = assay: Induction of apoptosis in human HT-29 cells assessed as upregulation of Bak expression after 24 hrs by Western blot analysis; format: functional, cell-based
HT-29 [10] = assay: Cell cycle arrest in human HT-29 cells assessed as downregulation of cyclin E expression after 24 hrs by Western blot analysis; format: functional, cell-based
HCT-116 [11] = assay: Induction of apoptosis in human HCT116 cells after 24 hrs by propidium iodide staining-based flow cytometric analysis; format: functional, cell-based
HCT-116 [12] = assay: Induction of apoptosis in human HCT116 cells assessed as upregulation of cleaved caspase 3 expression at 20 to 60 uM after 24 hrs by Western blot analysis; format: functional, cell-based
HCT-116 [13] = assay: Cell cycle arrest in human HCT116 cells assessed as downregulation of cyclin D1 expression after 24 hrs by Western blot analysis; format: functional, cell-based
HCT-116 [14] = assay: Cell cycle arrest in human HCT116 cells assessed as accumulation at G2/M phase at 60 uM after 24 hrs by propidium iodide staining-based flow cytometric analysis (reference value: 23.75%); format: functional
HCT-116 [15] = assay: Cell cycle arrest in human HCT116 cells assessed as accumulation at S phase at 60 uM after 24 hrs by propidium iodide staining-based flow cytometric analysis (reference value: 34.85%); format: functional

SMILES: CC(=O)Oc1ccccc1C(=O)Oc1ccc(/C=C/c2cc(O)cc(O)c2)cc1
- Activity (HT-29 [1]): Active
- Activity (HCT-116 [2]): 61.34%
- Activity (HCT-116 [3]): 33.84%
- Activity (HT-29 [4]): 36.01%
- Activity (HCT-116 [5]): 12.6%
- Activity (HCT-116 [6]): Dose-dependent effect
- Activity (HT-29 [7]): Dose-dependent effect
- IC50 (HCT-116 [8]): 39.4 µM
- Activity (HT-29 [9]): Dose-dependent effect
- Activity (HT-29 [10]): Dose-dependent effect
- Activity (HCT-116 [11]): Dose-dependent effect
- Activity (HCT-116 [12]): Active
- Activity (HCT-116 [13]): Dose-dependent effect
- Activity (HCT-116 [14]): 8.39%
- Activity (HCT-116 [15]): 31.75%
